Reference: patent publication US7015022B2, “Mammalian catalase-dependent oxidation processes and methods for stimulating oxidative activities” (University of Medicine & Dentistry of New Jersey, priority 2002, dated 2006)
Entries after “also recorded” stand apart in the source; their conditions may differ.

How the values were obtained:
[1] = target: T1, mammalian catalase (Bos taurus, UniProt P00432); assay: Competition with AMPLEX-RED: inhibition of the AMPLEX-RED catalase oxidase reaction; assay type: biochemical, bovine; settings: for kind of inhibition of the AMPLEX-RED oxidase reaction (kinetic analysis): competitive or noncompetitive; for inhibition of the AMPLEX-RED catalase oxidase activity: catalase 1 mg/ml in reaction buffer, no concentration given; for inhibition of the oxidation of AMPLEX-RED to resorufin by catalase: concentrations ranging from 0.005 mM to 0.1 mm or greater; for Ki: calculated from kinetic analysis, catalase 1 mg/ml, read-out: Ki for inhibition of the AMPLEX-RED catalase oxidation reaction
T1 construct: purified catalases obtained from a variety of sources including enzyme from mouse and bovine liver; purchased Sigma Chemical Co., St. Louis, Mo; host or cells: liver tissue (mouse and bovine named)
T1 sequence (P00432 2-527 limits assumed): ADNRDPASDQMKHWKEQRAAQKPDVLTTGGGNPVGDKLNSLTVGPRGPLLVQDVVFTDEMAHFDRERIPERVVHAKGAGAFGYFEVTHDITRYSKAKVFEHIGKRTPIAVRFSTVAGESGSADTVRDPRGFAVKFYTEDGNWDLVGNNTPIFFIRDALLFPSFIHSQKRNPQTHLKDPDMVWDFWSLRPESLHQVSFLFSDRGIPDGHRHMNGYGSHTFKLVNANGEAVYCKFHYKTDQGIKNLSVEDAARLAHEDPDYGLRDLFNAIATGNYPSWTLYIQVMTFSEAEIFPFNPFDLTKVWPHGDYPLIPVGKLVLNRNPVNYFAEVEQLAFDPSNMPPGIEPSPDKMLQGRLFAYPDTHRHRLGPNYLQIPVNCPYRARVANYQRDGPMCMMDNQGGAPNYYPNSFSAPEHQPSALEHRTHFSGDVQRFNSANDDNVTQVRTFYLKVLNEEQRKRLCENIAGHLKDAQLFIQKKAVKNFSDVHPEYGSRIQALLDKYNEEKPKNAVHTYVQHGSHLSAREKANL
Procedure: Catalases were purchased from Sigma Chemical Co., St. Louis, Mo. Reactions were carried out in buffer consisting of 50 mM phosphate buffer, pH 7.4 and 1.0 mg/ml of the catalase at room temperature (22° C.) in a reaction volume of 0.1 ml. […] Standard reaction mixtures contain 20 nmoles of the substrate. Detection of the fluorescent product resorufin was measured using an HTS 7000 Plus Bio Assay Reader (Perkin Elmer, Beaconsfield, Buckinghamsire, UK) using a 540 nm excitation filter and a 595 nm emission filter.

[2] = target: T1, mammalian catalase; assay: Oxidation of substrates by catalase oxidase activity (absorbance or fluorescence); assay type: biochemical, bovine; settings: in the absence of hydrogen peroxide
Procedure: The oxidation of multiple substrates depicted in Table 1 with time was measured using an HTS 7000 Plus Bio Assay Reader using standard catalase reaction mixes (0.5 mg/ml catalase in 50 mM phosphate buffer, pH 7.4). Pyrogallol oxidation (1 mM) was measured by the increase in absorbance at 430 nm. Oxidation of ABTS (1 mM) was measured as the […] in absorbance at 430 nm. Oxidation of catechol (1 mM) was measured as the increase in absorbance at 420 nm. Oxidation of DCFH (5 μM) by catalase was measured as the increase in fluorescence over time with a 485 nm excitation filter and a 520 nm emission filter.

[3] = target: T2, catalase (Bos taurus, UniProt P00432); assay: Accelerating catalase oxidation of DCFH-DA with UV light; assay type: biochemical; settings: DCFH-DA 5 μM, catalase 1 mg/ml
T2 sequence (P00432 2-527 limits assumed): T1 sequence (P00432 2-527 limits assumed)
Procedure: The present invention also relates to methods for accelerating the oxidation of substrates by catalase by exposure to ultraviolet light. For purposes of the present invention, by “accelerate” or “accelerating” it is meant that the rate at which catalase oxidizes a substrate is increased when exposed to ultraviolet light as compared the rate of oxidation of the substrate by catalase in the absence of ultraviolet light. In this method, a substrate is added to mammalian catalase and the mixture is then treated with low doses of ultraviolet light to accelerate oxidation of the substrate. In a preferred embodiment of this method, the low dose of ultraviolet radiation ranges between 2.5 and 25 mJ/cm^2 at a wavelength of UVB light that is between 290 and 320 nm. […] For example, the substrate DCFH-DA was added to a reaction mixture containing catalase in sodium phosphate buffer. The samples were then exposed to increasing doses of ultraviolet light (UVB, 290–320 nm).
Samples were then exposed to increasing doses of ultraviolet light (UVB, 290–320 nm) emitted from a bank of two FS20 UVB light bulbs (Sylvania).

Row | Compound | kind of inhibition of the AMPLEX-RED oxidase reaction (kinetic analysis) [1] | inhibition of the oxidation of AMPLEX-RED to resorufin by catalase [1] | other results
1 | 5-amino-2,3-dihydro-1,4-phthalazine-dione (luminol) | competitive inhibitor |  | 
2 | O=C(OC1Cc2c(O)cc(O)cc2OC1c1cc(O)c(O)c(O)c1)c1cc(O)c(O)c(O)c1 (single isomer, unassigned; (-)) [EGCG, (−)-epigallocatechin-3-gallate] |  |  | substrate for the catalase oxidase reaction [2]: substrate
3 | Nc1nc[nH]n1 [3-amino-1,2,4-triazole] |  |  | inhibition of the AMPLEX-RED catalase oxidase activity [1]: inhibits
4 | Cc1c(N(C)C)c(=O)n(-c2ccccc2)n1C [4-dimethylaminoantipyrine] | non-competitive inhibitors | inhibition | kind of inhibition of the AMPLEX-RED oxidase reaction (kinetic analysis) ([1]; listed as aminopyrene): noncompetitive inhibitor
5 | CCn1/c(=N\N=c2\sc3cc(S(=O)(=O)O)ccc3n2CC)sc2cc(S(=O)(=O)O)ccc21.N.N [ABTS, 2,2′-azino-bis[3-ethylbenzthiazoline-6-sulfonic acid]] | competitive inhibitors | inhibition | 
6 | Nc1ccc(-c2ccc(N)c(N)c2)cc1N [DAB, 3,3′-diaminobenzidine] | competitive inhibitors | inhibition | inhibition of the AMPLEX-RED catalase oxidase activity [1]: inhibitors
7 | CC(=O)Oc1cc2c(cc1Cl)C(c1ccccc1C(=O)O)c1cc(Cl)c(OC(C)=O)cc1O2 [DCFH-DA, 2′,7′-dichlorodihydrofluoresceindiacetate] | competitive inhibitors | inhibition | oxidation of DCFH-DA by catalase (increase in fluorescence) ([3]; absence of UVB light): Oxidation of DCFH-DA is observed; also recorded: Relatively low levels of oxidation; oxidation of DCFH-DA by catalase (increase in fluorescence) ([3]; with UVB light 290–320 nm, increasing doses): marked enhancement; Ki [1]: 31.6 µM
8 | Oc1ccccc1O [DHB, 1,2-dihydroxybenzene(catechol)] | competitive inhibitors | inhibition | 
9 | COc1cc(-c2ccc(N)c(OC)c2)ccc1N [DMB, 3,3′-dimethoxybenzidine] | competitive inhibitors | inhibition | 
10 | COc1cc(/C=C/C(=O)O)ccc1O [HMCA, 4-hydroxy-3-methoxycinnamicacid (ferulic acid)] | competitive inhibitors | inhibition | substrate for the catalase oxidase reaction [2]: substrate
11 | Oc1cccc(O)c1O [pyrogallol, 1,2,3-trihydroxybenzene(pyrogallol)] | competitive inhibitors | inhibition | Ki [1]: 1680 µM
